{
  "source": "patent US20250255845A1",
  "about": "“USE OF INTERLEUKIN (IL)-17A INHIBITOR IN PREPARATION OF MEDICAMENT FOR TREATING INFLAMMATORY DISEASE” (Xiangnan University, priority 2024, published 2025)",
  "key": {"[1]": {"test_system": "IMQ-induced psoriasis mice", "assay": "H&E histological evaluation of dorsal skin of IMQ-induced psoriasis mice", "format": "in vivo, Balb/c mice", "settings": "dose-dependent", "experimental": "(§1) Balb/c mice (female, 6-8 weeks, 20+2 g), with certificate number [SCXK (Xiang) 2021-0002], were purchased from Hunan SJA Laboratory Animal (Changsha, China). All mice were housed in an specific pathogen free (SPF)-grade animal room with a 12 h light/12 h dark cycle, and experiments were started after the mice were acclimated for one week. Next, 96 mice were randomly divided into 12 groups (8 mice/group), including Control group, Control solvent (white vaseline) group, IMQ group, IMQ solvent (white vaseline) group, preventive administration of positive medicament Clo group (IMQ+Clo 55 mg), therapeutic administration of positive medicament group (IMQ+Clo (A) 55 mg), preventive administration of Tan low-dose group (IMQ+Tan 40 μg/cm^2), medium-dose group (IMQ+Tan160 μg/cm^2), and high-dose group (IMQ+Tan 640 μg/cm^2), and therapeutic administration of Tan low-dose group (IMQ+Tan (A) 40 μg/cm^2), medium-dose group (IMQ+Tan (A) 160 μg/cm^2), and high-dose group (IMQ+Tan (A) 640 μg/cm^2). After the mice were anesthetized, a 2 cm×3 cm area on the back was selected for hair removal. Modeling began 48 h after hair removal, and all modeling mice were applied with 65 mg (55 mg on the back and 5 mg on each ear) of IMQ cream every morning for 10 d. […]"}, "IL-6": {"test_system": "IL-6", "assay": "ELISA of LPS-induced IL-6 secretion in RAW264.7 cells", "format": "cell-based, mouse", "experimental": "(§2) RAW264.7 cell culture: mouse mononuclear macrophages (RAW264.7, ATCC) are cultured in a complete medium containing 10% fetal bovine serum (FBS), 1% double antibodies (penicillin and streptomycin), and 89% DMEM at 37° C. and 5% CO2. In this experiment, RAW264.7 cells from passages 3 to 8 are used for related test.\n(§3) LPS (100 ng/ml) is added for stimulation, with or without Tan, and the cell supernatant is collected to detect the contents of NO, IL-23, IL-17A, TNF-α, and IL-6 in the cell supernatant. The cell lysate is collected and the protein expressions (STAT3, p-STAT3 (Ser727), and p-STAT3 (Tyr705)) are detected by Western blot. Total cell RNA is extracted and real-time fluorescence quantitative polymerase chain reaction (PCR) is conducted to detect the expression levels of IL-23, IL-17A, TNF-α, and IL-6 mRNA.\nRAW264.7 cells in the logarithmic growth phase were inoculated into a 6-well plate and the cell density was adjusted to 5.0×10^5 cells/well. After culturing for 24 h, the cells were stably adhered to the plate. The original medium was removed and different concentrations (5, 10, 20, 40 μM) of Tan were added to allow pretreatment for 1 h. […] The OD450 nm value of the cell supernatant was detected according to the instructions of the TNF-α and IL-6 ELISA kits, and the content of pro-inflammatory factors (TNF-α and IL-6) in the cell supernatant was calculated."}, "TNF-α mRNA": {"test_system": "TNF-α mRNA", "assay": "Real-time fluorescence quantitative PCR, LPS-induced TNF-α mRNA in RAW264.7 cells", "format": "cell-based, mouse", "experimental": "as §2, §3\nRAW264.7 cells were inoculated into 6-well plate and the cell density was adjusted to 5.0×10^6 cells/well. […] The fluorescence intensity of each sample was detected according to the instructions of the real-time fluorescence quantitative PCR kit and specific primers (Table 1) (cycle conditions: enzyme activation 95° C. for 3 min, 1 cycle; denaturation 95° C. for 15 s, annealing/extension 60° C. for 1 min, 40 cycles). The mRNA expression level of each group was normalized with the GAPDH expression level, and the relative expression of mRNA was calculated using the 2^−ΔΔCt method."}, "PCNA": {"test_system": "PCNA", "assay": "Immunohistochemistry of PCNA in dorsal skin of IMQ-induced psoriasis mice", "format": "in vivo, Balb/c mice", "settings": "preventive and therapeutic administration groups; dose-dependent", "experimental": "as §1"}},
  "data": [
    {"smiles": "COc1ccc(-c2cc(=O)c3c(OC)c(OC)c(OC)c(OC)c3o2)cc1", "note": "[Tan, tangeretin]", "values": [
      {"measurement": "H&E histology of dorsal skin (epidermal thickness, hyperkeratosis, inflammatory infiltration)", "setting": "[1]; preventive Tan group vs IMQ group", "value": "reduced epidermal tissue thickness, reduced hyperkeratosis, and slight inflammatory cellular infiltration"},
      {"measurement": "H&E histology of dorsal skin (epidermal thickness, hyperkeratosis, inflammatory infiltration)", "setting": "[1]; therapeutic Tan group, especially high-dose, vs IMQ group", "value": "reduced epidermal tissue thickness, reduced hyperkeratosis, and slight inflammatory cellular infiltration"},
      {"measurement": "inhibitory effect on IL-6 secretion compared with positive control Clo", "setting": "IL-6; 40 μM", "value": "comparable to that of the positive control"},
      {"measurement": "IL-6 level in the cell supernatant", "setting": "IL-6; 5-40 μM, 24 h, vs LPS group, P<0.001, dose-dependent", "value": "significantly decreased"},
      {"measurement": "inhibitory effect on TNF-α mRNA compared with positive control Clo", "setting": "TNF-α mRNA; 40 μM", "value": "comparable to that of the positive control Clo"},
      {"measurement": "relative expression level of TNF-α mRNA", "setting": "TNF-α mRNA; 5-40 μM, 24 h, vs LPS, P<0.001, dose-dependent", "value": "significantly decreased"},
      {"measurement": "expression level of PCNA in the dorsal skin", "setting": "PCNA", "value": "significantly reduced"}
    ]}
  ]
}
